Drawing on patent US7485641B2, “Substituted 3-amino-pyrrolidino-4-lactams” (Pfizer, Inc., priority 2006, dated 2009), this text covers IC50 for 32 compounds.

pIC50: −log10 of the molar value. Where a name gives a salt, the structure may show the parent alone.

In this assay the target is T1, DPP-IV (Homo sapiens, UniProt P27487).
T1 construct: purchased Enzyme Systems Products SPE-01
T1 sequence (P27487 whole entry, species assumed): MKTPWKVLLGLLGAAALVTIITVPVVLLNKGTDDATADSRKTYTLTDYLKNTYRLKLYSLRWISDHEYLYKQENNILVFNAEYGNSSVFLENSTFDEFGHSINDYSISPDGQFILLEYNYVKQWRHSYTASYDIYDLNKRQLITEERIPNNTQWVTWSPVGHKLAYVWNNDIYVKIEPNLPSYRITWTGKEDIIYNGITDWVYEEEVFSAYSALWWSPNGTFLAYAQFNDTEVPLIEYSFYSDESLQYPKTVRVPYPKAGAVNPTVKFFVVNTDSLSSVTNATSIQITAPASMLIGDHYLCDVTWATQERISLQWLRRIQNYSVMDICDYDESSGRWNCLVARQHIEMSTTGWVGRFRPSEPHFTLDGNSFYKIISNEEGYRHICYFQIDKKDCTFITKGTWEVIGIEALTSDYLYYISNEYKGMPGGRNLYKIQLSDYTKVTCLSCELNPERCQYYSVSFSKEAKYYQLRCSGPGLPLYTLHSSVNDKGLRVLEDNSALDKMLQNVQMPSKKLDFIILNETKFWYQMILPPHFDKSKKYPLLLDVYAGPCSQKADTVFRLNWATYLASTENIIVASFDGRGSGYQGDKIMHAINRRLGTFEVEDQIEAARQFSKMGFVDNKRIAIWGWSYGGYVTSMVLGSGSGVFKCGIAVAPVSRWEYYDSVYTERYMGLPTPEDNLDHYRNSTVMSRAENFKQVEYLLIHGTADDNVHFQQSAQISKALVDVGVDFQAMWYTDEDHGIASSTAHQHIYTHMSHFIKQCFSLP
Description: In vitro assay for dipeptidyl peptidase inhibition. Conditions: n-value given in brackets; read-out: DPP-IV IC50. It counts as biochemical.
In the case of “1-((3S,4S)-4-Amino-1-(4-((R)-3-fluoropyrrolidin-1-yl)-1,3,5-triazin-2-yl)pyrrolidin-3-yl)piperidin-2-onetrifluoroacetate [Example 27]”, the negative-log IC50 (pIC50) is 7.04.

“1-((3S,4S)-4-Amino-1-(6-(pyrrolidin-1-yl)pyrimidin-4-yl)pyrrolidin-3-yl)pyrrolidin-2-one(dihydrochloride) [Example 31]”: the pIC50 was 6.32.

Take `Cc1nc(N2C[C@H](N)[C@@H](N3CC(F)(F)CCC3=O)C2)cc(N2CCC(F)(F)C2)n1` [Example 3, 1-((3S,4S)-4-amino-1-(6-(3,3-difluoropyrrolidin-1-yl)-2-methylpyrimidin-4-yl)pyrrolidin-3-yl)-5,5-difluoropiperidin-2-one]: the negative logarithm of the IC50 (pIC50) is 7.90.

In the case of `N[C@H]1CN(c2cc(N3CCc4nocc4C3)ncn2)C[C@@H]1N1CC(F)(F)CCC1=O` [Example 4, 1-((3S,4S)-4-amino-1-(6-(6,7-dihydroisoxazolo[4,3-c]pyridin-5(4H)-yl)pyrimidin-4-yl)pyrrolidin-3-yl)-5,5-difluoropiperidin-2-one], the pIC50 is 8.22.

For the compound `N[C@H]1CN(c2cc(N3CCc4nocc4C3)ncn2)C[C@@H]1N1CCCCC1=O` [Example 5, 1-((3S,4S)-4-Amino-1-(6-(6,7-dihydroisoxazolo[4,3-c]pyridin-5(4H)-yl)pyrimidin-4-yl)pyrrolidin-3-yl)piperidin-2-one dihydrochloride], the negative logarithm of the IC50 (pIC50) was 7.93.

In the case of `N[C@H]1CN(c2cc(-c3ccccc3)ncn2)C[C@@H]1N1CCCC1=O` [Example 6, 1-((3S,4S)-4-Amino-1-(6-phenylpyrimidin-4-yl)pyrrolidin-3-yl)pyrrolidin-2-one dihydrochloride], the negative-log IC50 (pIC50) was 6.31.

With `N[C@H]1CN(c2cc(-c3ccccc3)ncn2)C[C@@H]1N1CCCCC1=O` [Example 7, 1-((3S,4S)-4-Amino-1-(6-phenylpyrimidin-4-yl)pyrrolidin-3-yl)piperidin-2-one hydrochloride], the pIC50 is 7.32.

Consider `N[C@H]1CN(c2cc(-c3ccc(O)nc3)ncn2)C[C@@H]1N1CCCCC1=O` [Example 8, 1-{(3S,4S)-4-Amino-1-[6-(6-hydroxy-pyridin-3-yl)pyrimidin-4-yl]-pyrrolidin-3-yl}-piperidin-2-one], for which the negative-log IC50 (pIC50) is 7.57.

`COc1ccc(-c2cc(N3C[C@H](N)[C@@H](N4CC(F)(F)CCC4=O)C3)ncn2)cn1` [Example 9, 1-((3S,4S)-4-amino-1-(6-(6-methoxypyridin-3-yl)pyrimidin-4-yl)pyrrolidin-3-yl)-5,5-difluoropiperidin-2-one trifluoroacetate]: the negative logarithm of the IC50 (pIC50) was 7.56.

Take `N[C@H]1CN(c2cc(N3CCC(F)(F)C3)ncn2)C[C@@H]1N1CCCCC1=O` [Example 10, 1-((3S,4S)-4-Amino-1-(6-(3,3-difluoropyrrolidin-1-yl)pyrimidin-4-yl)pyrrolidin-3-yl)piperidin-2-onedihydrochloride]: the negative-log IC50 (pIC50) is 7.59.

As to `N[C@H]1CN(c2ncnc(N3CCC(F)(F)C3)n2)C[C@@H]1N1CCCCC1=O` [Example 11, 1-{(3S,4S)-4-Amino-1-[4-(3,3-difluoro-pyrrolidin-1-yl)-[1,3,5]triazin-2-yl]-pyrrolidin-3-yl}-piperidin-2-onedihydrochloride], the negative-log IC50 (pIC50) was 7.43.

Consider `N[C@H]1CN(c2cc(N3CCC(F)(F)C3)ncn2)C[C@@H]1N1CCCC1=O` [Example 12, 1-((3S,4S)-4-Amino-1-(6-(3,3-difluoropyrrolidin-1-yl)pyrimidin-4-yl)pyrrolidin-3-yl)pyrrolidin-2-onedihydrochloride], for which the negative-log IC50 (pIC50) is 6.28.

Consider `N[C@H]1CN(c2cc(N3CCC(F)(F)C3)nc(C(F)(F)F)n2)C[C@@H]1N1CC(F)(F)CCC1=O` [Example 13, 1-((3S,4S)-4-amino-1-(6-(3,3-difluoropyrrolidin-1-yl)-2-(trifluoromethyl)pyrimidin-4-yl)pyrrolidin-3-yl)-5,5-difluoropiperidin-2-one], for which the negative-log IC50 (pIC50) is 7.25.

`N[C@H]1CN(c2cc(N3CCC(F)(F)C3)nc(C(F)(F)F)n2)C[C@@H]1N1CCCCC1=O` [Example 14, 1-((3S,4S)-4-amino-1-(6-(3,3-difluoropyrrolidin-1-yl)-2-(trifluoromethyl)pyrimidin-4-yl)pyrrolidin-3-yl)piperidin-2-one]: the pIC50 is 7.35.

Take `CCc1nc(N2C[C@H](N)[C@@H](N3CCCCC3=O)C2)cc(N2CCC(F)(F)C2)n1` [Example 15, 1-((3S,4S)-4-amino-1-(6-(3,3-difluoropyrrolidin-1-yl)-2-ethylpyrimidin-4-yl)pyrrolidin-3-yl)piperidin-2-one]: the pIC50 was 7.40.

For the compound `CC(C)c1nc(N2C[C@H](N)[C@@H](N3CCCCC3=O)C2)cc(N2CCC(F)(F)C2)n1` [Example 16, 1-((3S,4S)-4-amino-1-(6-(3,3-difluoropyrrolidin-1-yl)-2-isopropylpyrimidin-4-yl)pyrrolidin-3-yl)piperidin-2-oneformate], the negative logarithm of the IC50 (pIC50) is 6.87.

As for `N[C@H]1CN(c2cc(N3CCC(F)(F)C3)nc(C3CC3)n2)C[C@@H]1N1CCCCC1=O` [Example 17, 1-((3S,4S)-4-amino-1-(2-cyclopropyl-6-(3,3-difluoropyrrolidin-1-yl)pyrimidin-4-yl)pyrrolidin-3-yl)piperidin-2-one], the pIC50 was 6.96.

As to `CCCc1nc(N2C[C@H](N)[C@@H](N3CCCCC3=O)C2)cc(N2CCC(F)(F)C2)n1` [Example 18, 1-((3S,4S)-4-amino-1-(6-(3,3-difluoropyrrolidin-1-yl)-2-propylpyrimidin-4-yl)pyrrolidin-3-yl)piperidin-2-oneformate], the negative logarithm of the IC50 (pIC50) was 7.36.

With `CSc1nc(N2C[C@H](N)[C@@H](N3CCCCC3=O)C2)cc(N2CCC(F)(F)C2)n1` [Example 19, 1-((3S,4S)-4-amino-1-(6-(3,3-difluoropyrrolidin-1-yl)-2-(methylthio)pyrimidin-4-yl)pyrrolidin-3-yl)piperidin-2-one], the negative-log IC50 (pIC50) was 7.13.

Take `CCSc1nc(N2C[C@H](N)[C@@H](N3CCCCC3=O)C2)cc(N2CCC(F)(F)C2)n1` [Example 20, 1-((3S,4S)-4-amino-1-(6-(3,3-difluoropyrrolidin-1-yl)-2-(ethylthio)pyrimidin-4-yl)pyrrolidin-3-yl)piperidin-2-one]: the pIC50 was 7.08.

As to `N[C@H]1CN(c2ncnc(N3CCC(F)(F)C3)c2F)C[C@@H]1N1CCCCC1=O` [Example 21, 1-((3S,4S)-4-amino-1-(6-(3,3-difluoropyrrolidin-1-yl)-5-fluoropyrimidin-4-yl)pyrrolidin-3-yl)piperidin-2-one], the negative logarithm of the IC50 (pIC50) is 6.66.

In the case of `CC(C)(C)c1nc(N2C[C@H](N)[C@@H](N3CCCCC3=O)C2)cc(N2CCC(F)(F)C2)n1` [Example 22, 1-((3S,4S)-4-amino-1-(2-tert-butyl-6-(3,3-difluoropyrrolidin-1-yl)pyrimidin-4-yl)pyrrolidin-3-yl)piperidin-2-one], the pIC50 was 6.08.

Turning to `N[C@H]1CN(c2cc(N3CC[C@H](F)C3)ncn2)C[C@@H]1N1CC(F)(F)CCC1=O` [Example 23, 1-((3S,4S)-4-amino-1-(6-((S)-3-fluoropyrrolidin-1-yl)pyrimidin-4-yl)pyrrolidin-3-yl)-5,5-difluoropiperidin-2-one], the pIC50 is 7.92.

With `N[C@H]1CN(c2ncnc(N3CC[C@H](F)C3)n2)C[C@@H]1N1CC(F)(F)CCC1=O` [Example 24, 1-((3S,4S)-4-amino-1-(4-((S)-3-fluoropyrrolidin-1-yl)-1,3,5-triazin-2-yl)pyrrolidin-3-yl)-5,5-difluoropiperidin-2-one], the pIC50 was 7.32.

Turning to `N[C@H]1CN(c2ncnc(N3CC[C@H](F)C3)n2)C[C@@H]1N1CCCCC1=O` [Example 25, 1-((3S,4S)-4-Amino-1-(4-((S)-3-fluoropyrrolidin-1-yl)-1,3,5-triazin-2-yl)pyrrolidin-3-yl)piperidin-2-onetrifluoroacetate], the negative-log IC50 (pIC50) is 7.10.

As to `Cc1nc(N2CC[C@H](F)C2)cc(N2C[C@H](N)[C@@H](N3CC(F)(F)CCC3=O)C2)n1` [Example 26, 1-((3S,4S)-4-amino-1-(6-((S)-3-fluoropyrrolidin-1-yl)-2-methylpyrimidin-4-yl)pyrrolidin-3-yl)-5,5-difluoropiperidin-2-one], the pIC50 is 7.43.

On to `N[C@H]1CN(c2ncnc(N3C[C@@H](F)[C@@H](F)C3)n2)C[C@@H]1N1CCCCC1=O` [Example 28, 1-((3S,4S)-4-Amino-1-(4-((3R,4S)-3,4-difluoropyrrolidin-1-yl)-1,3,5-triazin-2-yl)pyrrolidin-3-yl)piperidin-2-onetrifluoroacetate], for which the negative-log IC50 (pIC50) was 7.17.

Take `N[C@H]1CN(c2ncnc(N3C[C@@H](F)[C@H](F)C3)n2)C[C@@H]1N1CCCCC1=O` [Example 29, 1-((3S,4S)-4-Amino-1-(4-((3R,4R)-3,4-difluoropyrrolidin-1-yl)-1,3,5-triazin-2-yl)pyrrolidin-3-yl)piperidin-2-onetrifluoroacetate]: the pIC50 was 6.81.

As for `N[C@H]1CN(c2ncnc(N3C[C@H](F)[C@@H](F)C3)n2)C[C@@H]1N1CCCCC1=O` [Example 30, 1-((3S,4S)-4-Amino-1-(4-((3S,4S)-3,4-difluoropyrrolidin-1-yl)-1,3,5-triazin-2-yl)pyrrolidin-3-yl)piperidin-2-onetrifluoroacetate], the pIC50 is 6.98.

For `N[C@H]1CN(c2ncnc(N3CCCC3)n2)C[C@@H]1N1CCCCC1=O` [Example 32, 1-((3S,4S)-4-Amino-1-(4-(pyrrolidin-1-yl)-1,3,5-triazin-2-yl)pyrrolidin-3-yl)piperidin-2-onetrifluoroacetate], the negative-log IC50 (pIC50) is 7.04.

Regarding `Cc1nc(N2C[C@H](N)[C@@H](N3CC(F)(F)CCC3=O)C2)cc(N2CCCC(F)(F)C2)n1` [Example 33, 1-((3S,4S)-4-amino-1-(6-(3,3-difluoropiperidin-1-yl)-2-methylpyrimidin-4-yl)pyrrolidin-3-yl)-5,5-difluoropiperidin-2-onetrifluoroacetate], the pIC50 is 7.01.

On to `Cc1nc(N2C[C@H](N)[C@@H](N3CCCCC3=O)C2)cc(N2CCCC(F)(F)C2)n1` [Example 34, 1-((3S,4S)-4-amino-1-(6-(3,3-difluoropiperidin-1-yl)-2-methylpyrimidin-4-yl)pyrrolidin-3-yl)piperidin-2-onetrifluoroacetate], for which the pIC50 was 6.56.

By pIC50 is commonly meant the negative decadic logarithm of the IC50, by convention in mol/L.
